Assay results taken from patent publication US20200345637A1, “SUSPENSION COMPOSITIONS OF MULTI-TARGET INHIBITORS” (AIVIVA BIOPHARMA, INC., priority 2018, published 2020).
Values after ≈ are worked out from the molar mass of the structure shown. Values joined by “and” are separate entries in the source; they are usually repeats but may differ in a detail not shown here. Identical values can stand only once. Like-named read-outs stand apart in the source and are kept apart here.

What was measured:
[1] = Aqueous solubility of multi-target inhibitors; assay type: physicochemical; settings: aqueous (not further specified)
Source text: Non-limiting examples of the useful multi-target inhibitors and their physicochemical forms are given in Table 1 with aqueous solubility information.

[2] = Suspension physical testing: particle size, pH, osmolality, syringeability; assay type: physicochemical; parameters: API Raw Material PSD D50 / Formulated Suspension Particle size distribution D50 / API Raw Material PSD D90 / Formulated Suspension Particle size distribution D90: unit not given here; settings: for Formulated Suspension Syringeability: needle gauge passed
Source text: (§1) Examples 1-3 depict the results of physical testing of some subject formulations.

[3] = Terminal sterilization and stability assay of formulated suspension; assay type: physicochemical
Source text: as §1

[4] = test system: choroid neovascularization lesions; experiment: Laser-induced choroid neovascularization model in rats; assay type: in vivo, Brown Norway rats; settings: intravitreal injection 50 μg/eye; fluorescein angiography Day 22
Protocol: The tolerability, efficacy, and ocular distribution were evaluated in a laser-induced choroid neovascularization model in rats. […] In this 22-day study, effects of local administration of the multi-target (i.e., multi-target kinase) inhibitors nintedanib and lenvatinib were examined on the development of new vessels. Vehicle and positive control groups were included in the study. Female Brown Norway rats were divided into 7 separate treatment groups. On Day 1, laser treatments were performed on all animals using a 520 nm thermal laser to generate a total of three lesions per eye. […] On Day 3, bilateral intravitreal injections of vehicle, 5 μg/eye of rat anti-VEGF antibody, 50 μg/eye of nintedanib, or 50 μg/eye of lenvatinib were performed. On Day 22, fluorescein angiography was performed on all animals, and the lesion sizes/areas were determined using image analysis software (Image J). […] Concentrations of test compounds in ocular tissues and plasma were measured by LCMS-MS after intravitreal or eyedrop administration in rats. […] The eyedrop administration produced higher drug concentrations in the ocular surface, such as conjunctiva, than the intravitreal injection. Three times daily eyedrop administration maintained higher concentrations in plasma than a single intravitreal injection.

[5] = in vivo; parameters: species or system New Zealand White rabbits; settings: male, New Zealand White, rabbit
Protocol: Five to seven male New Zealand White rabbits were used per treatment group. Each eye received a 35 μl eyedrop of vehicle, or respective drugs (0.3%) three times daily for 10 days. After the last dose on Day 11, the animals were sacrificed and eyes were enucleated, and plasma and the ocular tissues were collected. Tissue and plasma concentrations of these compounds were measured by LC-MS/MS.

[6] = test system: linear incision wound sites; experiment: Intradermal injection along linear incision wounds, histological evaluation; assay type: in vivo, minipigs; settings: for granulation tissue formation compared to vehicle treated control wounds / presence of myofibroblasts compared to vehicle treated control wounds: 2% suspension (sorafenib 1% suspension); for SMA staining / dermis fibrin / dermis fibroplasia / dermis provisional matrix / epidermis hyperplasia / inflammation / subcutis fibroplasia / subcutis mixed cell infiltrate: microscopic grade over 29 days
Protocol: The purpose of this study was to evaluate the suspension formulation when administered via intradermal injection with axitinib, nintedanib, sorafenib, and lenvatinib to the dorsal skin along linear incisions of minipigs.
Four male minipigs were dosed. Animals were dosed once via intradermal injection along the edges of each of 10 wound sites for each animal (5 wounds on each side of the dorsum [perpendicular to the spine], approximately 3 cm in length and 3 cm distance from the spine). Axitinib, nintedanib, lenvatinib, and the vehicle control article were administered via eight 0.1 mL intradermal injections around each respective wound site (one injection/cm on both sides of the wound), for a total volume of 0.8 mL/wound site. Sorafenib was administered via the same method at a volume of 0.2 mL/injection, for a total volume of 1.6 mL/wound site. The vehicle control article was Vehicle for Test Articles axitinib, nintedanib, lenvatinib, and sorafenib.
A generalized measure of inflammation, including inflammatory cell infiltrate, fibrin deposition, fibroplasia, epithelial hyperplasia and areas of tissue necrosis were assessed microscopically. […] For test agent treated wounds, all were graded as slight on Day 4, and there was no consistent difference over time as compared to the control group.

[7] = rabbit, in vivo; for tissue concentrations in the retina and choroid / intravitreal dose remained in the vitreous humor / depot and streaks in vitreous humor by fundus imaging: Dutch Belted
Protocol: (§2) This study evaluated the tolerability and dispersion of the formulations of nintedanib and lenvatinib over 42 days in the posterior segment of the eyes. A single 50 μL intravitreal administration of the 1% suspension was administered to Dutch Belted rabbits.

[8] = rabbit, in vivo
Protocol: (§3) This study evaluated the local tolerance of vehicle, axitinib, pirfenidone, sorafenib and lenvatinib and ocular distribution of axitinib, sorafenib and lenvatinib (0.3% w/w) when administered by topical ocular instillation in the eyes of New Zealand white rabbits (n=6 per group). […] On Dosing Day 5, the animals were sacrificed and eyes were enucleated. Ocular and plasma concentrations of select compounds were measured by LC-MS/MS.

[9] = systemic; literature or US label; cited from earlier work
[10] = in vivo; settings: Dutch Belted, rabbit
Protocol: as §2

[11] = in vivo; settings: New Zealand White, rabbit
Protocol: as §3

solubility [1]	API Raw Material PSD D50 [2]	API Raw Material PSD D90 [2]	Formulated Suspension Osmolality [2]	Formulated Suspension Particle size distribution D50 [2]	Formulated Suspension Particle size distribution D90 [2]	Formulated Suspension pH [2]	Formulated Suspension Syringeability [2]	Assay (% of labeled claim) of Formulated Suspension, Initial ([3]; Autoclave)	Structure (SMILES)	Assay (% of labeled claim) of Formulated Suspension, 4 months (40° C./75% RH) ([3]; Gamma irradiation)	Assay (% of labeled claim) of Formulated Suspension, 6 weeks (40° C./75% RH) ([3]; Gamma irradiation)	Assay (% of labeled claim) of Formulated Suspension, Initial ([3]; Gamma irradiation)	lesion sizes relative to vehicle-treated eyes [4]	granulation tissue formation compared to vehicle treated control wounds [6]	presence of myofibroblasts compared to vehicle treated control wounds [6]	SMA staining [6]	dermis fibrin [6]	dermis fibroplasia [6]	dermis provisional matrix [6]	epidermis hyperplasia [6]	also measured
4 µg/mL (≈ 9.37 µM)	D50: 164	D90: 346	201 mOsm/kg	D50: 7	D90: 25	7.6	Pass 27G	99.0 % of labeled claim	COc1cc2nccc(Oc3ccc(NC(=O)NC4CC4)c(Cl)c3)c2cc1C(N)=O [Lenvatinib]	99.8 % of labeled claim and 100.2 % of labeled claim	99.2 % of labeled claim and 99.8 % of labeled claim	101.4 % of labeled claim and 102.4 % of labeled claim	significantly reduced lesion sizes	delay in granulation tissue formation	prolonged presence of myofibroblasts	slight	minimal to slight	minimal to slight	marked to minimal	slight to none	lesion sizes relative to positive control, rat anti-VEGF [4]: significantly reduced lesion sizes; concentration at 11 day (after the last dose) [5]: 98.5 ng/mL; inflammation [6]: slight to marked; subcutis fibroplasia [6]: moderate to minimal; subcutis mixed cell infiltrate [6]: slight to severe; tissue concentrations in the retina and choroid [7]: over 1 μg/gm; intravitreal dose remained in the vitreous humor ([7]; 29 days): 9-17%; depot and streaks in vitreous humor by fundus imaging ([7]; 42 days): remained present out to Day 42 postdose; intravitreal dose remained in the vitreous humor ([7]; 42 days): 3-9%; concentrations in the choroid and retina [8]: significant concentrations; drug concentrations in anterior tissues of conjunctiva, sclera and cornea [8]: high drug concentrations; terminal plasma half-life in man [9]: 30 h; concentration at 29 days [10]: 4.94 ng/mL; concentration at 42 days [10]: 3.91 ng/mL; concentration at 5 day of dosing [11]: 131 ng/mL
9 µg/mL (≈ 16.7 µM)	D50: 68	D90: 105	207 mOsm/kg	D50: 22	D90: 35	7.6	Pass 23G	96.0 % of labeled claim	COC(=O)c1ccc2c(c1)NC(=O)/C2=C(\Nc1ccc(N(C)C(=O)CN2CCN(C)CC2)cc1)c1ccccc1 [Nintedanib]	90.0 % of labeled claim and 97.9 % of labeled claim	98.1 % of labeled claim and 99.7 % of labeled claim	101.8 % of labeled claim and 103.0 % of labeled claim	significantly reduced lesion sizes	delay in granulation tissue formation	prolonged presence of myofibroblasts	none to moderate	slight to moderate	none to slight	marked	minimal to moderate	inflammation [6]: slight to moderate; subcutis fibroplasia [6]: none to moderate; subcutis mixed cell infiltrate [6]: slight to marked; tissue concentrations in the retina and choroid [7]: higher than 1 μg/gm; depot and streaks in vitreous humor by fundus imaging ([7]; 42 days): remained present out to Day 42 postdose; intravitreal dose remained in the vitreous humor ([7]; 42 days): 4-7%; Concentrations in conjunctival tissue [7]: mostly under quantitation limit; terminal plasma half-life in man [9]: 9.5 h; concentration at 29 days [10]: 0.252 ng/mL; concentration at 42 days [10]: 0.348 ng/mL
